Marks after values point to notes of the source that are not given here.
Columns and labels:
[1] = system: Subjects with Major Depressive Disorder; test: Phase 2 open-label study (Part A): safety and tolerability (TEAEs, C-SSRS); assay type: in vivo, human; conditions: N=13
Experimental: In this multicenter, open-label, Phase 2 clinical trial, subjects were administered 30 mg Compound 1 on Days 1-14 and assessed through Day 28. Reductions in depressive and anxiety symptoms were assessed by the Hamilton Rating Scales for Depression and Anxiety (HAM-D and HAM-A), and the Montgomery-Asberg Depression Rating Scale (MADRS). Safety and tolerability were assessed via standard safety parameters. Pharmacokinetic parameters were also evaluated.
Compound 1 was provided as a 6 mg/mL stock aqueous solution, which was further diluted with sterile water to achieve the selected dose that was administered as an oral solution. Participants received an open label 30 mg Compound 1 oral dose administered at 8:00 PM (+/−15 minutes) with food on Days 1 through 14. Subjects who experienced drug-related moderate or severe adverse events (as judged by the study investigators) while receiving the 30 mg dose of study drug were to have their dose reduced to 20 mg for the remaining treatment period. Any subjects not tolerating a 20 mg dose were to be terminated from the study. Vital signs were collected daily. Other study procedures and plasma collection for PK parameters were conducted at various times during the 14-day open label treatment period (procedure details in the Supplemental Appendix). Treatment follow-up was conducted on an outpatient basis and included a follow-up visit at 1 week (21+/−1 day) and at 2 weeks (28+/−1 day) after the last dose of the study drug.
The primary endpoint of safety and tolerability of Compound 1 was assessed by the frequency and severity of adverse events, vital signs, changes in clinical laboratory measures, physical exams, electrocardiograms (ECGs), the Stanford Sleepiness Scale (SSS) score, and suicide ideation using the Columbia-Suicide Severity Rating Scale (C-SSRS, Supplemental Table 1). Secondary efficacy endpoints included: change from baseline in HAM-D total score, HAM-D response, defined as having a 50% or greater reduction from baseline in HAM-D total score, HAM-D remission, defined as having a HAM-D total score of ≤7, HAM-A change from baseline, and MADRS score change from baseline. The PK profile of Compound 1 was also determined from plasma samples.
Subjects were monitored for safety during the Treatment and Follow-up Periods including monitoring for adverse events/serious adverse events, routine clinical laboratory assessments, physical examination, vital signs, and ECG. During the Treatment Period, subjects received study drug as long as there are no dose-limiting safety/tolerability concerns

[2] = system: Adult patients with moderate to severe Major Depressive Disorder (MDD); test: Phase 2 double-blind placebo-controlled trial (Part B): HAM-D efficacy; assay type: in vivo, human
Experimental: In the randomized, double-blind, parallel-group, placebo-controlled trial, eligible patients (with a minimum total score of 22 on the Hamilton Rating Scale for Depression) were stratified based on use of antidepressant treatment (current/stable or not treated/withdrawn ≥30 days) and randomized in a 1:1 ratio to receive Compound 1 Capsules (30 mg) or matching placebo. All doses of study drug were administered at night with food. The study consisted of a 14-day treatment period, and a 4-week follow-up period. The mean HAM-D total scores at baseline were 25.2 for the Compound 1 group and 25.7 for the placebo group (overall range 22-33), representing patients with moderate to severe MDD. Approximately 90 percent of patients in each group completed the study.

C[C@@]1(O)CC[C@H]2[C@H](CC[C@@H]3[C@@H]2CC[C@]2(C)[C@@H](C(=O)Cn4cc(C#N)cn4)CC[C@@H]32)C1 [Compound 1, 1-(2-((3R,5R,8R,9R,10S,13S,14S,17S)-3-hydroxy-3,13-dimethylhexadecahydro-1H-cyclopenta[a]phenanthren-17-yl)-2-oxoethyl)-1H-pyrazole-4-carbonitrile]
At least one TEAE, number of subjects ([1]; 30 mg once daily Days 1-14): 12 subjects
tolerability ([1]; 30 mg once daily Days 1-14): generally well tolerated
C-SSRS Subject engaged in non-suicidal self-injurious behavior, number of subjects who answered yes ([1]; Day 2-15 (yes on Days 10-13)): 1*
C-SSRS Aborted attempt, number of subjects who answered yes ([1]; Day 2-15): 0
C-SSRS Actual attempt, number of subjects who answered yes ([1]; Day 2-15): 0
C-SSRS Interrupted attempt, number of subjects who answered yes ([1]; Day 2-15): 0
C-SSRS Preparatory acts or behavior, number of subjects who answered yes ([1]; Day 2-15): 0
C-SSRS Suicidal behavior, number of subjects who answered yes ([1]; Day 2-15): 0
Dizziness, number of subjects [1]: 3 subjects
Dizziness, percent of subjects [1]: (23.1%)
Drug-related TEAE, number of subjects [1]: 11 subjects
Drug-related TEAE, percent of subjects [1]: (84.6%)
Headache, number of subjects [1]: 4 subjects
Headache, percent of subjects [1]: (30.8%)
Myalgia, number of subjects [1]: 3 subjects
Myalgia, percent of subjects [1]: (23.1%)
Nasal Congestion, number of subjects [1]: 2 subjects
Nasal Congestion, percent of subjects [1]: (15.4%)
Sedation, number of subjects [1]: 6 subjects
Sedation, percent of subjects [1]: (46.2%)
Serious AE, number of subjects [1]: 0 subjects
Severe TEAE, number of subjects [1]: 0 subjects
Somnolence, number of subjects [1]: 3 subjects
Somnolence, percent of subjects [1]: (23.1%)
TEAE leading to death, number of subjects [1]: 0 subjects
TEAE leading to drug discontinuation, number of subjects [1]: 0 subjects
changes in clinical hematology, urinalysis, vital signs, or ECGs [1]: no clinically relevant changes
serious adverse events (SAEs) or discontinuations due to AEs [1]: no serious adverse events (SAEs) or discontinuations due to AEs
onset of improvement in HAM-D total score compared to placebo ([2]; Capsules 30 mg at night with food): significant by the morning following the first dose (Day 2)
HAM-D total score, mean reduction from baseline ([2]; Day 15, Capsules 30 mg at night with food for 14 days, baseline 25.2, placebo 10.7): 17.6 points
HAM-D total score, least squared mean difference from placebo ([2]; Day 15, p<0.0001): −7.0
remission rate (HAM-D total score not more than 7) ([2]; Day 15, placebo 23 percent, p=0.0005): 64%
HAM-D total score, mean reduction from baseline ([2]; Week 4, placebo 11.9, p=0.0243): 15.6
remission rate ([2]; Week 4, placebo 28 percent, p=0.0221): 52%
HAM-D total score, mean reduction from baseline ([2]; Week 6, placebo 13.0, not statistically improved): 15.0
remission rate ([2]; Week 6, placebo 33 percent, not significant): 45%
